Like-named read-outs stand apart in the source and are kept apart here.
Tested on: Human cord blood CD34+ cells
Test: cells
Assay type: cell-based
Conditions: for proliferation inhibition: CD34 cells, cell number, FIG. 3, concentration range for which the percentage of dead cells is stated; for IC50: Homo sapiens, cytokine stimulated CD34 cells; for percentage of dead cells to total cells: human
Procedure: Human cord blood CD34+ cells were isolated to high purity (>90%) by immunomagnetic cell sorting, aliquoted and frozen in DMSO containing medium. For cell culture setup, frozen CD34+ cells were thawed and 200 cells were seeded in 200 μl complete medium of a well of a 96 well plate. The basal cell culture medium consisted of IMDM-Medium supplemented with 20% human AB serum and antibiotics (pen/strep). The CD34+ cells were activated by addition of following cytokine cocktail: hu-SCF (100 ng/ml), hu-IL6 (10 ng/ml), hu-GM-CSF (100 U/ml), hu-TPO (25 ng/ml) and hu-EPO (5 U/ml). Cultivation was performed in incubators at 37° C., high humidity and 7% CO2.
Two different experimental setup were used: 1) addition of the inhibitor compound prior supplementation of the medium with cytokines to hit preferentially resting cells, and 2) addition of inhibitor compound 4 days after CD34 activation with cytokines to hit preferentially activated cells.
Dependent on the proliferation rate of the CD34+ cells, harvest and analysis of cell number and cytotoxicity was performed after 9–10 d cell culture. The cell number and cytotoxicity was analysed by FACS technique. The number of cells present in the well was counted by comparison with an internal bead standard. A aliquot of 10000 beads was added to each well harboring 200 μl medium volume FLUOSPHERES® polystyrene, 15 μm; Molecular Probes).
A gate, shown as rectangular region, was set onto the standard beads, a distinct number was counted, analysis was stopped and the corresponding volume of medium containing cells was calculated. […] The viable cells appear again in the middle/right position of the forward scatter (FSC) displaying low/no propidium iodide labeling. The few dead cells appear left or in the upper/left position relative to viable cell population. The FACS measurement took an aliqout count of the beads and calculated the number of cells being present within the well, whereas the cytotoxicity, the number of dead cells, was recorded in parallel during this measurement (addition of propidium iodide; final concentration 1 μg/ml). […] At the highest inhibitory and cytotoxic concentration very few cells were present anymore in the viable cell cluster and the majority of cells had been killed as evident by increased PI staining or fragmentation (panel H).
A typical example of the calculation of the number of CD34 cells and percentage of dead cells in a well is shown in FIG. 3 for two cytotoxic compounds, namely 5-fluorouracil and doxorubicine. […] The increase of the percentage of dead cells obtained from the analysis of the PI positive cell fraction (FIG. 2 panels E to H) is shown as solid line.

In the case of `O=c1[nH]cc(F)c(=O)[nH]1` [5-fluorouracil], the proliferation inhibition is reported as “more than 50%”, the IC50 (240 h, 9–10 d culture, FACS count against bead standard, tested 0.1–100 μmol/l, read-out: IC50 value for the cell number analysis) is reported as 340 nM and the “percentage of dead cells to total cells” value is reported as 0-25%.
For `COc1cccc2c1C(=O)c1c(O)c3c(c(O)c1C2=O)C[C@@](O)(C(=O)CO)C[C@@H]3O[C@H]1C[C@H](N)[C@H](O)[C@H](C)O1` [doxorubicine], the proliferation inhibition was “about 80%”, the IC50 (240 h, 9–10 d culture, FACS count against bead standard, tested 1–1000 ng/ml, read-out: IC50 value (cell number) from IC50 calculation program) was 0.67 ng/mL and the IC50 (FIG. 3 legend, tested 1–1000 ng/ml, read-out: IC50 value for the cell number analysis) was 0.67 ng/mL. For the same compound, the “percentage of dead cells to total cells” value was ~40%.
